Reference: patent publication US12384745B2, “Crystal form of five-membered n heterocyclic compound, and application thereof” (CHIA TAI TIANQING PHARMACEUTICAL GROUP CO., LTD., priority 2019, dated 2025)

What was measured:
HBV DNA in HepAD38 cells = assay: In-vitro inhibitory activity against HBV DNA in HepAD38 cells; type: cell-based; settings: Hepatitis B virus, 144 h, 6 days treatment, intracellular capsid HBV DNA by qPCR, read-out: EC50, anti-HBV activity
Experimental: (§1) 2.1. In-vitro Inhibitory Activity Against HBV DNA in Cells
(§2) A vial of HepG2.2.15 cells (Wuhan Institute of Virology) or HepAD38 cells in good condition and at logarithmic growth phase was washed once with 5 mL of PBS. 3 mL of pancreatin was added. The cells were digested at room temperature for 5 min, then 2 mL of pancreatin was discarded. The cells were further digested in a cell incubator for 10 min, and observed under a microscope (whether the cells are round in shape, and whether the cells are separated or adhered). 10 mL of complete medium was added to terminate the digestion. The cells was mixed using a pipette to obtain a single cell suspension. 10 μL of the cell suspension was loaded on a cell counter for counting, and diluted with the complete medium to adjust the cell density to 1×10^5 cells/mL. The cells were seeded on a 24-well plate (pre-coated with 50 μg/mL Collagen I solution) at 1 mL/well using a multi-channel pipette and cultured in a thermostatic CO2 incubator for 48 h.
(§3) A solution of the compound dissolved in DMSO was diluted to 10 concentrations in a 2-fold gradient using complete medium. […] HBV DNA in the intracellular viral capsid was measured by real-time fluorescent quantitative PCR. The inhibition rate was calculated according to the Ct value, and the EC50 value was calculated by four-parameter fitting.

[1] = Plasma protein binding assay, dog plasma; type: in vitro ADME
Experimental: (§4) 2.4. Plasma Protein Binding Assay
(§5) Preparation of plasma samples: 5 μL of test compound solution or positive control was added to 495 μL of blank plasma of various species (mouse, rat, dog, monkey and human) to obtain plasma sample solutions at plasma concentrations of 1 μM and 10 μM (in acetonitrile).
(§6) The pretreated dialysis membrane was loaded on a high-throughput equilibrium dialysis system. 100 μL of the plasma sample solution and PBS buffer were added to the two sides (sample side and buffer side) of the dialysis membrane respectively (n=3). The system was sealed with a patch and incubated at 37° C. overnight (100 rpm) to achieve dialysis equilibrium. 50 μL samples were taken from the sample side and the buffer side, and the reaction was terminated with glacial acetonitrile containing an internal standard.
(§7) Sample pretreatment: 450 μL of glacial acetonitrile containing an internal standard was added to 50 μL of the sample from the plasma side for precipitation. The mixture was vortexed for 5 min, and centrifuged (12000 rpm, 4° C.) for 10 min. 75 μL of supernatant was taken and diluted with 75 μL of ultrapure water. After being mixed well, 1 μL of the resulting sample was injected for analysis; 250 μL of glacial acetonitrile containing an internal standard was added to 50 μL of the sample from the PBS side for precipitation. […]

[2] = Plasma protein binding assay, monkey plasma; type: in vitro ADME
Experimental: as §4, §5, §6, §7

[3] = In vitro stability in rat liver microsomes; type: in vitro ADME
Experimental: (§8) Experimental Example 3. In Vitro Stability in Liver Microsome A final incubation system of 300 μL contained 30 μL of liver microsomes (protein concentration: 0.15 mg/mL, Corning), 30 μL of NADPH+MgCl2, 3 μL of substrate (in acetonitrile) and 237 μL of PBS. Samples were prepared in duplicate of 0.3 mL for each specie. For each tube, the 270 μL mixed solution of substrates and enzyme and the NADPH solution were separately pre-incubated at 37° C. for 5 min. The 30 μL mixed solution of NADPH+MgCl2 was added for reaction. 50-μL samples were taken at 0 min, 10 min, 30 min and 60 min, and 300 μL of glacial acetonitrile containing an internal standard was added to the samples to terminate the reaction. Sample pretreatment: 300 μL of glacial acetonitrile containing internal standard diazepam was added to 50 μL of the incubated sample for precipitation. The mixture was vortexed for 5 min, and centrifuged (12000 rpm, 4° C.) for 10 min. 75 μL of supernatant was added to a 96-well plate and diluted with 75 μL of ultrapure water. After being mixed well, 0.5 μL of the resulting sample was injected to a LC-MS/MS system for analysis.

[4] = In vitro stability in mouse liver microsomes; type: in vitro ADME
Experimental: as §8

HepG2.2.15 cells = assay: In vitro cytotoxicity (CCK-8); type: cell-based; settings: 6 days treatment
Experimental: 2.2. In Vitro Cytotoxicity
A vial of HepG2.2.15 cells (Wuhan Institute of Virology) in good condition and at logarithmic growth phase was washed once with 5 mL of PBS. 2 mL of pancreatin was added. The cells were incubated in a cell incubator for digestion, and observed at times under a microscope. 1 mL of pancreatin was discarded when the cells just fell off, leaving the residual liquid only. The cells were further incubated in the incubator at 37° C. for 8-15 min of digestion and observed under a microscope (whether the cells are round in shape, and whether the cells are separated or adhered). 5 mL of MEM medium was added for cell resuspension. The cell suspension was loaded on a cell counter for counting, and diluted with the complete medium to adjust the cell density to 2×10^5 cells/mL. The cells were seeded on a 96-well plate (pre-coated with 50 μg/mL Collagen I solution) at 100 μL/well using a multi-channel pipette and cultured in a thermostatic CO2 incubator for 24 h. The compound was added, and the medium containing the compound was refreshed every 3 days. A medium containing 0.5% of DMSO but no compound was added to the control wells, and control wells of basal medium were set. After 6 days of treatment, CCK-8 was added at 10 μL/well, and after 1-2 h, the absorbance at 450 nm was measured with a plate reader. The inhibition rate and CC50 were calculated.

[5] = system: HBV DNA in HepG2.2.15 cells; assay: In-vitro inhibitory activity against HBV DNA in HepG2.2.15 cells; type: cell-based; settings: Hepatitis B virus, 144 h, 6 days treatment, intracellular capsid HBV DNA by qPCR, read-out: EC50, anti-HBV activity
Experimental: as §1, §2, §3

[6] = In vitro stability in human liver microsomes; type: in vitro ADME
Experimental: as §8

[7] = Plasma protein binding assay, human plasma; type: in vitro ADME
Experimental: as §4, §5, §6, §7

[8] = Plasma protein binding assay, rat plasma; type: in vitro ADME
Experimental: as §4, §5, §6, §7

[9] = Plasma protein binding assay, mouse plasma; type: in vitro ADME
Experimental: as §4, §5, §6, §7

[10] = Pharmacokinetic (PK) study in rats; type: in vivo; settings: SD rats, PO 10 mg/kg vs IV 5 mg/kg
Experimental: Pharmacokinetic (PK) Study in Rats […]
The animals to be tested (SD rats) were fasted for 12 h before administration and fed 4 h after administration, and had free access to water before, after and during the experiment.
After administration, about 0.2 mL of blood was collected from the orbit at 0 min, 15 min, 30 min, 1 h, 2 h, 4 h, 6 h, 8 h, 10 h, 24 h, 30 h and 48 h. After anticoagulation with EDTA-K2, the blood samples were transferred to a centrifuge at 4° C. within 30 min and centrifuged at 4000 rpm for 10 min to separate the plasma. All the plasma samples were collected and immediately stored at −20° C. for testing.
50 μL of the plasma sample to be tested and standard curve sample were taken, and 500 μL of acetonitrile solution containing an internal standard (20 mg/mL diazepam) was added. The reaction system was shaken for 5 min and centrifuged at 12,000 rpm for 10 min. 75 μL of supernatant was taken and diluted with 75 μL of ultrapure water. After being mixed well, 1 μL of the resulting sample was taken for LC/MS/MS analysis.

[11] = Stability assay of crystalline form (influential factors); type: physicochemical
Experimental: 1.1. Preparation of Samples
500 mg of the crystalline form A of the compound of formula I prepared in Example 2 was placed in a dry and clean container, and evenly spread in a thin layer as the test sample. The sample was completely exposed to experimental conditions of influential factors (40° C., 60° C., 75% RH, 92.5% RH, high temperature and high humidity (40° C., 75% RH)). Samples were taken for analysis on day 10. The samples were completely exposed to illumination (visible light of 1,200,000 Lux·hr, UV of 216 W·hr/m^2) at room temperature.
1.2. Chromatographic Conditions
Chromatographic column: Waters XBridge Shield RP18 (4.6 mm×150 mm, 3.5 μm).
The water content was measured by a Mettler V20 system.
1.3. Preparation of Sample Solution
About 12.5 mg of the sample was dissolved with an appropriate amount of a mixed diluent of acetonitrile-water (70:30) for content assay of related substance.

[12] = High humidity (75% RH), 10 days
[13] = High humidity (92.5% RH), 10 days
[14] = High temperature (40° C.), 10 days
[15] = High temperature (60° C.), 10 days
[16] = High temperature and high humidity (40° C., 75% RH), 10 days

`Cc1[nH]c(C(=O)C(=O)N[C@@H](C)C(F)(F)F)c(C)c1C(=O)Nc1ccc(F)c(C#N)c1` [Compound of formula I, (S)-N-(3-cyano-4-fluorophenyl)-2,4-dimethyl-5-(2-oxo-2-((1,1,1-trifluoropropan-2-yl)amino)acetyl)-1H-pyrrol-3-formamide] showed an EC50 (HBV DNA in HepAD38 cells) of 24 nM, a Binding rate ([1]; 1 μM) of 94.0% and a Binding rate ([1]; 10 μM) of 93.9%. The Binding rate ([2]; 1 μM) was 90.2%, the Binding rate ([2]; 10 μM) was 90.5% and the “Rat liver microsomes Residual content after 60 min” value [3] was 99%. For the same compound, the “Mouse liver microsomes Residual content after 60 min” value [4] was 96%, the CC50 (HepG2.2.15 cells) was over 100000 nM and the EC50 [5] was 17.4 nM. For the same compound, the “Human liver microsomes Residual content after 60 min” value [6] was 99%, the Binding rate ([7]; 1 μM) was 97.3% and the Binding rate ([7]; 10 μM) was 97.3%. The Binding rate ([8]; 1 μM) was 95.0%, the Binding rate ([8]; 10 μM) was 95.3% and the Binding rate ([9]; 1 μM) was 85.4%. For the same compound, the Binding rate ([9]; 10 μM) was 85.5% and the F [10] was 100%.
For `Cc1[nH]c(C(=O)C(=O)N[C@@H](C)C(F)(F)F)c(C)c1C(=O)Nc1ccc(F)c(C#N)c1` [(S)-N-(3-cyano-4-fluorophenyl)-2,4-dimethyl-5-(2-oxo-2-((1,1,1-trifluoropropan-2-yl)amino)acetyl)-1H-pyrrol-3-formamide], the “Related substance (total impurities)” value ([11]; Day 0) was 0.57%, the Water ([11]; Day 0) was 0.13% and the “Related substance (total impurities)” value [11, 12] was 0.63%. The Water [11, 12] was 0.15%, the “Related substance (total impurities)” value [11, 13] was 0.65% and the Water [11, 13] was 0.17%. The “Related substance (total impurities)” value [11, 14] was 0.65%, the Water [11, 14] was 0.17% and the “Related substance (total impurities)” value [11, 15] was 0.65%. The Water [11, 15] was 0.16%, the “Related substance (total impurities)” value [11, 16] was 0.63% and the Water [11, 16] was 0.16%. For the same compound, the “Related substance (total impurities)” value ([11]; Illumination, 10 days) was 0.64%, the Water ([11]; Illumination, 10 days) was 0.16% and the “Stability at high humidity, at high temperature or under illumination” value ([11]; summary of Table 2) was “good stability”.
